Data published in ChEMBL document CHEMBL3822398, “Design, synthesis and in vitro biological evaluation of short-chain C12-sphinganine and its 1,2,3-triazole analogs as potential antimicrobial and anti-biofilm agents” (Eur J Med Chem, 2016).
≈ marks a conversion by molar mass, not a printed value. Values belong to the molecule of their own block, whether it stands above or below them. Calls of active or inactive are those of the source. The rule behind the calls is not given here.

Assays:
Candida albicans [1] = test: Antifungal activity against Candida albicans MTCC 183 incubated for 24 hrs at 30 degC by well diffusion method; assay type: functional; conditions: MTCC 183, 24 h
Candida albicans [2] = test: Antifungal activity against Candida albicans MTCC 227 incubated for 24 hrs at 30 degC by well diffusion method; assay type: functional; conditions: MTCC 227, 24 h
Candida albicans [3] = test: Antifungal activity against Candida albicans MTCC 854 incubated for 24 hrs at 30 degC by well diffusion method; assay type: functional; conditions: MTCC 854, 24 h
Candida albicans [4] = test: Antifungal activity against Candida albicans MTCC 1637 incubated for 24 hrs at 30 degC by well diffusion method; assay type: functional; conditions: MTCC 1637, 24 h
Candida albicans [5] = test: Antifungal activity against Candida albicans MTCC 3017 incubated for 24 hrs at 30 degC by well diffusion method; assay type: functional; conditions: MTCC 3017, 24 h
Candida albicans [6] = test: Antifungal activity against Candida albicans MTCC 3018 incubated for 24 hrs at 30 degC by well diffusion method; assay type: functional; conditions: MTCC 3018, 24 h
Candida albicans [7] = test: Antifungal activity against Candida albicans MTCC 3958 incubated for 24 hrs at 30 degC by well diffusion method; assay type: functional; conditions: MTCC 3958, 24 h
Candida albicans [8] = test: Antifungal activity against Candida albicans MTCC 4748 incubated for 24 hrs at 30 degC by well diffusion method; assay type: functional; conditions: MTCC 4748, 24 h
Candida albicans [9] = test: Antifungal activity against Candida albicans MTCC 7315 incubated for 24 hrs at 30 degC by well diffusion method; assay type: functional; conditions: MTCC 7315, 24 h
Candida parapsilosis [10] = test: Antifungal activity against Candida parapsilosis MTCC 1744 incubated for 24 hrs at 30 degC by well diffusion method; assay type: functional; conditions: Lodderomyces parapsilosis, MTCC 1744, 24 h
[Candida] aaseri [11] = Antifungal activity against Candida aaseri MTCC 1962 incubated for 24 hrs at 30 degC by well diffusion method; assay type: functional; conditions: Yamadazyma aaseri, MTCC 1962, 24 h
Nakaseomyces glabratus [12] = test: Antifungal activity against Candida glabrata MTCC 3019 incubated for 24 hrs at 30 degC by well diffusion method; assay type: functional; conditions: MTCC 3019, 24 h
Pichia kudriavzevii [13] = test: Antifungal activity against Candida krusei MTCC 3020 incubated for 24 hrs at 30 degC by well diffusion method; assay type: functional; conditions: MTCC 3020, 24 h
Pichia sporocuriosa [14] = test: Antifungal activity against Issatchenkia hanoiensis MTCC 4755 incubated for 24 hrs at 30 degC by well diffusion method; assay type: functional; conditions: MTCC 4755, 24 h
Candida albicans [15] = test: Fungicidal activity against Candida albicans MTCC 183 incubated for 24 hrs; assay type: functional; conditions: MTCC 183, 24 h
Candida albicans [16] = test: Fungicidal activity against Candida albicans MTCC 227 incubated for 24 hrs; assay type: functional; conditions: MTCC 227, 24 h
Candida albicans [17] = test: Fungicidal activity against Candida albicans MTCC 854 incubated for 24 hrs; assay type: functional; conditions: MTCC 854, 24 h
Candida albicans [18] = test: Fungicidal activity against Candida albicans MTCC 1637 incubated for 24 hrs; assay type: functional; conditions: MTCC 1637, 24 h
Candida albicans [19] = test: Fungicidal activity against Candida albicans MTCC 3017 incubated for 24 hrs; assay type: functional; conditions: MTCC 3017, 24 h
Candida albicans [20] = test: Fungicidal activity against Candida albicans MTCC 3018 incubated for 24 hrs; assay type: functional; conditions: MTCC 3018, 24 h
Candida albicans [21] = test: Fungicidal activity against Candida albicans MTCC 3958 incubated for 24 hrs; assay type: functional; conditions: MTCC 3958, 24 h
Candida albicans [22] = test: Fungicidal activity against Candida albicans MTCC 4748 incubated for 24 hrs; assay type: functional; conditions: MTCC 4748, 24 h
Candida albicans [23] = test: Fungicidal activity against Candida albicans MTCC 7315 incubated for 24 hrs; assay type: functional; conditions: MTCC 7315, 24 h
Candida parapsilosis [24] = test: Fungicidal activity against Candida parapsilosis MTCC 1744 incubated for 24 hrs; assay type: functional; conditions: Lodderomyces parapsilosis, MTCC 1744, 24 h
[Candida] aaseri [25] = Fungicidal activity against Candida aaseri MTCC 1962 incubated for 24 hrs; assay type: functional; conditions: Yamadazyma aaseri, MTCC 1962, 24 h
Nakaseomyces glabratus [26] = test: Fungicidal activity against Candida glabrata MTCC 3019 incubated for 24 hrs; assay type: functional; conditions: MTCC 3019, 24 h
Pichia kudriavzevii [27] = test: Fungicidal activity against Candida krusei MTCC 3020 incubated for 24 hrs; assay type: functional; conditions: MTCC 3020, 24 h
Pichia sporocuriosa [28] = test: Fungicidal activity against Issatchenkia hanoiensis MTCC 4755 incubated for 24 hrs; assay type: functional; conditions: MTCC 4755, 24 h
Candida albicans [29] = test: Induction of ROS accumulation in Candida albicans MTCC 227 sessile cells at 2 to 8 ug/ml incubated for 24 hrs by DCFH-DA dye based microplate reader analysis; assay type: functional, organism-based
Staphylococcus aureus [30] = test: Antibacterial activity against Staphylococcus aureus MTCC 96 incubated for 24 hrs at 37 degC by well diffusion method; assay type: functional; conditions: MTCC 96, 24 h
Bacillus subtilis [31] = test: Antibacterial activity against Bacillus subtilis MTCC 121 incubated for 24 hrs at 37 degC by well diffusion method; assay type: functional; conditions: MTCC 121, 24 h
Staphylococcus aureus [32] = test: Antibacterial activity against Staphylococcus aureus MLS16 MTCC 2940 incubated for 24 hrs at 37 degC by well diffusion method; assay type: functional; conditions: MLS16 MTCC 2940, 24 h
Micrococcus luteus [33] = test: Antibacterial activity against Micrococcus luteus MTCC 2470 incubated for 24 hrs at 37 degC by well diffusion method; assay type: functional; conditions: MTCC 2470, 24 h
Raoultella planticola [34] = test: Antibacterial activity against Klebsiella planticola MTCC 530 incubated for 24 hrs at 37 degC by well diffusion method; assay type: functional; conditions: MTCC 530, 24 h
Escherichia coli [35] = test: Antibacterial activity against Escherichia coli MTCC 739 incubated for 24 hrs at 37 degC by well diffusion method; assay type: functional; conditions: MTCC 739, 24 h
Pseudomonas aeruginosa = test: Antibacterial activity against Pseudomonas aeruginosa MTCC 2453 incubated for 24 hrs at 37 degC by well diffusion method; assay type: functional; conditions: MTCC 2453, 24 h
Staphylococcus aureus [36] = test: Bactericidal activity against Staphylococcus aureus MTCC 96 incubated for 24 hrs; assay type: functional; conditions: MTCC 96, 24 h
Bacillus subtilis [37] = test: Bactericidal activity against Bacillus subtilis MTCC 121 incubated for 24 hrs; assay type: functional; conditions: MTCC 121, 24 h
Staphylococcus aureus [38] = test: Bactericidal activity against Staphylococcus aureus MLS16 MTCC 2940 incubated for 24 hrs; assay type: functional; conditions: MLS16 MTCC 2940, 24 h
Micrococcus luteus [39] = test: Bactericidal activity against Micrococcus luteus MTCC 2470 incubated for 24 hrs; assay type: functional; conditions: MTCC 2470, 24 h
Raoultella planticola [40] = test: Bactericidal activity against Klebsiella planticola MTCC 530 incubated for 24 hrs; assay type: functional; conditions: MTCC 530, 24 h
Escherichia coli [41] = test: Bactericidal activity against Escherichia coli MTCC 739 incubated for 24 hrs; assay type: functional; conditions: MTCC 739, 24 h

Compound: Clc1ccc(COC(Cn2ccnc2)c2ccc(Cl)cc2Cl)c(Cl)c1 (stereo not given) [MICONAZOLE]
MIC (Candida albicans [1]): 7.8 mg/L (≈ 18.7 µM) | MIC (Candida albicans [2]): 7.8 mg/L (≈ 18.7 µM) | MIC (Candida albicans [3]): 7.8 mg/L (≈ 18.7 µM) | MIC (Candida albicans [4]): 7.8 mg/L (≈ 18.7 µM) | MIC (Candida albicans [5]): 7.8 mg/L (≈ 18.7 µM) | MIC (Candida albicans [6]): 7.8 mg/L (≈ 18.7 µM) | MIC (Candida albicans [7]): 7.8 mg/L (≈ 18.7 µM) | MIC (Candida albicans [8]): 7.8 mg/L (≈ 18.7 µM) | MIC (Candida albicans [9]): 7.8 mg/L (≈ 18.7 µM) | MIC (Candida parapsilosis [10]): 7.8 mg/L (≈ 18.7 µM) | MIC ([Candida] aaseri [11]): 7.8 mg/L (≈ 18.7 µM) | MIC (Nakaseomyces glabratus [12]): 7.8 mg/L (≈ 18.7 µM) | MIC (Pichia kudriavzevii [13]): 7.8 mg/L (≈ 18.7 µM) | MIC (Pichia sporocuriosa [14]): 7.8 mg/L (≈ 18.7 µM) | MFC (Candida albicans [15]): 7.8 mg/L (≈ 18.7 µM) | MFC (Candida albicans [16]): 15.6 mg/L (≈ 37.5 µM) | MFC (Candida albicans [17]): 15.6 mg/L (≈ 37.5 µM) | MFC (Candida albicans [18]): 15.6 mg/L (≈ 37.5 µM) | MFC (Candida albicans [19]): 7.8 mg/L (≈ 18.7 µM) | MFC (Candida albicans [20]): 7.8 mg/L (≈ 18.7 µM) | MFC (Candida albicans [21]): 15.6 mg/L (≈ 37.5 µM) | MFC (Candida albicans [22]): 7.8 mg/L (≈ 18.7 µM) | MFC (Candida albicans [23]): 7.8 mg/L (≈ 18.7 µM) | MFC (Candida parapsilosis [24]): 7.8 mg/L (≈ 18.7 µM) | MFC ([Candida] aaseri [25]): 7.8 mg/L (≈ 18.7 µM) | MFC (Nakaseomyces glabratus [26]): 15.6 mg/L (≈ 37.5 µM) | MFC (Pichia kudriavzevii [27]): 7.8 mg/L (≈ 18.7 µM) | MFC (Pichia sporocuriosa [28]): 7.8 mg/L (≈ 18.7 µM) | Activity (Candida albicans [29]): Active

Compound: CCCCCCCCC[C@@H](O)[C@H](CO)n1cc(CCO)nn1
MIC (Staphylococcus aureus [30]): 31.2 mg/L (≈ 99.5 µM) | MIC (Bacillus subtilis [31]): 31.2 mg/L (≈ 99.5 µM) | MIC (Staphylococcus aureus [32]): > 250 mg/L | MIC (Micrococcus luteus [33]): 15.6 mg/L (≈ 49.8 µM) | MIC (Raoultella planticola [34]): > 250 mg/L | MIC (Escherichia coli [35]): > 250 mg/L | MIC (Pseudomonas aeruginosa): > 250 mg/L | MBC (Staphylococcus aureus [36]): 31.2 mg/L (≈ 99.5 µM) | MBC (Bacillus subtilis [37]): 31.2 mg/L (≈ 99.5 µM) | MBC (Staphylococcus aureus [38]): > 250 mg/L | MBC (Micrococcus luteus [39]): 31.2 mg/L (≈ 99.5 µM) | MBC (Raoultella planticola [40]): > 250 mg/L | MBC (Escherichia coli [41]): > 250 mg/L

Compound: O=C(O)c1cn(C2CC2)c2cc(N3CCNCC3)c(F)cc2c1=O [CIPROFLOXACIN]
MIC (Staphylococcus aureus [30]): 0.9 mg/L (≈ 2.72 µM) | MIC (Bacillus subtilis [31]): 0.9 mg/L (≈ 2.72 µM) | MIC (Staphylococcus aureus [32]): 0.9 mg/L (≈ 2.72 µM) | MIC (Micrococcus luteus [33]): 0.9 mg/L (≈ 2.72 µM) | MIC (Raoultella planticola [34]): 0.9 mg/L (≈ 2.72 µM) | MIC (Escherichia coli [35]): 0.9 mg/L (≈ 2.72 µM) | MIC (Pseudomonas aeruginosa): 0.9 mg/L (≈ 2.72 µM) | MBC (Staphylococcus aureus [36]): 0.9 mg/L (≈ 2.72 µM) | MBC (Bacillus subtilis [37]): 1.9 mg/L (≈ 5.73 µM) | MBC (Staphylococcus aureus [38]): 1.9 mg/L (≈ 5.73 µM) | MBC (Micrococcus luteus [39]): 0.9 mg/L (≈ 2.72 µM) | MBC (Raoultella planticola [40]): 0.9 mg/L (≈ 2.72 µM) | MBC (Escherichia coli [41]): 1.9 mg/L (≈ 5.73 µM)

Second part, led by results:

MIC (Staphylococcus aureus [30]): 3.9 mg/L (≈ 11 µM) | MIC (Bacillus subtilis [31]): 7.8 mg/L (≈ 22.1 µM) | MIC (Staphylococcus aureus [32]): > 250 mg/L | MIC (Micrococcus luteus [33]): 7.8 mg/L (≈ 22.1 µM) | MIC (Escherichia coli [35]): > 250 mg/L | MIC (Pseudomonas aeruginosa): > 250 mg/L
Compound: CCCCCCCCC[C@@H](O)[C@H](CO)n1cc(CCCCCC)nn1
MIC (Raoultella planticola [34]): > 250 mg/L | MBC (Staphylococcus aureus [36]): 3.9 mg/L (≈ 11 µM) | MBC (Bacillus subtilis [37]): 15.6 mg/L (≈ 44.1 µM) | MBC (Staphylococcus aureus [38]): > 250 mg/L | MBC (Micrococcus luteus [39]): 15.6 mg/L (≈ 44.1 µM) | MBC (Raoultella planticola [40]): > 250 mg/L | MBC (Escherichia coli [41]): > 250 mg/L

MIC (Staphylococcus aureus [30]): > 250 mg/L | MIC (Bacillus subtilis [31]): > 250 mg/L | MIC (Staphylococcus aureus [32]): > 250 mg/L | MIC (Micrococcus luteus [33]): > 250 mg/L | MIC (Escherichia coli [35]): > 250 mg/L | MIC (Pseudomonas aeruginosa): > 250 mg/L
Compound: CCCCCCCCC[C@@H](O)[C@H](CO)n1cc(-c2ccc3cc(OC)ccc3c2)nn1
MIC (Raoultella planticola [34]): > 250 mg/L
